# Target: T1, human orexin type 2 receptor (hOX2R) (Homo sapiens, UniProt O43614)
# T1 construct: expressed in transfected cells
# T1 sequence (O43614 1-444): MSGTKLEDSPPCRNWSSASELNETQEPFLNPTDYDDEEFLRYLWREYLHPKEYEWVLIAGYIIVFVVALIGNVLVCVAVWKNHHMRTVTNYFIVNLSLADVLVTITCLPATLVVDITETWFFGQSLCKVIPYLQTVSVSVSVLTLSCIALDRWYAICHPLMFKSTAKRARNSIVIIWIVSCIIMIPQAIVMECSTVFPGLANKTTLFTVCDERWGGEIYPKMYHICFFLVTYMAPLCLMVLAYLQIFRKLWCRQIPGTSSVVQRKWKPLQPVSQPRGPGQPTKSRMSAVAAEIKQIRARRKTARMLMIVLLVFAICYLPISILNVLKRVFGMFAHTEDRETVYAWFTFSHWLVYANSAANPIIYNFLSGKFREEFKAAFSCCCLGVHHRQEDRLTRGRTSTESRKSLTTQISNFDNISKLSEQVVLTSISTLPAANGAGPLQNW
# Test: Measurement of orexin type 2 receptor agonist activity (Fluo-4 calcium fluorescence, CHO cells forcibly expressing human OX2 receptor)
# Type: cell-based
# Details: test compound 3 μM, DMSO = 0%, orexin A (human) 10 nM = 100%
# Outline: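 CHO-dhfr cells stably expressing human OX2 receptor, loaded with Fluo-4 AM in HBSS/HEPES/BSA with probenecid, then given test compound at 3 μM. Calcium fluorescence recorded for about 2 min 40 s by FDSS; activity normalized to DMSO (0%) and 10 nM human orexin A (100%).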
row,"OX2R agonist activity (3 μM, %) [%]",SMILES
1,94,"CO[C@@H]1CN(C(=O)c2cc(C)ccc2C)C[C@H]1Oc1cccc(NS(=O)(=O)N(C)C2CCOC2)c1 (relative stereo) [Example 46, trans-N′-(3-((1-(2,5-dimethylbenzoyl)-4-methoxypyrrolidin-3-yl)oxy)phenyl)-N-methyl-N-(tetrahydrofuran-3-yl)sulfuric diamide]"
2,75,"CO[C@@H]1CN(C(=O)c2cc(C)ccc2C)C[C@H]1Oc1cccc(CS(=O)(=O)N2CCCC2c2ccncc2)c1 (relative stereo) [Example 18, trans-(2,5-dimethylphenyl)(3-methoxy-4-(3-(((2-(pyridin-4-yl)pyrrolidin-1-yl)sulfonyl)methyl)phenoxy)pyrrolidin-1-yl)methanone]"
3,94,"CO[C@@H]1CN(C(=O)c2cc(C)ccc2C)C[C@H]1Oc1cccc(CS(=O)(=O)N(C)C2CCOCC2)c1 (relative stereo) [Example 31, trans-1-(3-((1-(2,5-dimethylbenzoyl)-4-methoxypyrrolidin-3-yl)oxy)phenyl)-N-methyl-N-(tetrahydro-2H-pyran-4-yl)methanesulfonamide]"
4,88,"CO[C@@H]1CN(C(=O)c2cc(C)ccc2C)C[C@H]1Oc1cccc(C(C)S(=O)(=O)N2CCC[C@H]2c2ccccn2)c1 (stereo partly drawn) [Example 137, (2,5-dimethylphenyl)((3R,4R)-3-methoxy-4-(3-(1-(((2S)-2-(pyridin-2-yl)pyrrolidin-1-yl)sulfonyl)ethyl)phenoxy)pyrrolidin-1-yl)methanone]"
5,94,"COC1CN(C(=O)c2cc(C)ccc2C)CC1Oc1cccc(NS(=O)(=O)N2C[C@@H]3CC[C@@H](C2)O3)c1 (relative stereo) [Example 80, trans-N-(3-((1-(2,5-dimethylbenzoyl)-4-methoxypyrrolidin-3-yl)oxy)phenyl)-8-oxa-3-azabicyclo[3.2.1]octane-3-sulfonamide]"
